Laboratory results from patent US5886190A, “Rapid synthesis and use of 18F-fluoromisonidazole and analogs” (priority 1997, dated 1999).
Several values for one entry are separate records, joined by “and”; a condition that tells them apart may be missing. Equal entries are not always repeated. Where two headings read alike, the source gives them in different places.

Legend:
hypoxic cells = assay: Selectivity to hypoxic cells (PET imaging, autoradiograms, biodistribution); settings: in vivo
Procedure: (§1) The synthesis scheme for [^18 F]FETNIM is depicted in FIG. 6. Biodistribution studies of [^18 F]FETNIM were performed at 1, 2 and 4 hours in mammary tumor-bearing rats (10 μCi, iv, N=3/time interval). Autoradiograms were performed at 1 hour postinjection of [^18 F]FETNIM, and a comparison has been made with [^18 F]fluoromisonidazole (FMISO). Intratumoral oxygen tension measurements were performed using the Eppendorf computerized histographic system. Twenty to twenty-five pO2 measurements along each of 2 to 3 linear tracks were performed at 0.4 mm intervals on each tumor. PET imaging studies of [^18 F]FETNIM were performed in rabbits bearing V2 tumors (N=3, 4 mCI, iv) which were located on the right leg.
PET imaging was performed with a positron camera (Positron Corporation, Houston, Tex.). The tomograph has a field-of-view of 42 cm on transverse and 12 cm on coronal planes. The axial resolution on the reconstructed plane is 1.2 cm. […]
Female Fischer 344 rats (250-275 g) (Harlan, Inc., Indianapolis, Ind.) were inoculated with mammary tumor cells in the lumbar area using a 13762 tumor cell line (s.c. 10^5 cells/rat). […] The tissues were excised, weighed and counted for radioactivity. The percent of injected dose per gram of tissue weight was determined.

[1] = Hydrophilicity (from autoradiogram and chemistry); format: physicochemical; settings: relative to comparator named in value
VX2 tumor = settings: 4 mCi; 1 hour postinjection
Procedure: as §1
PET imaging was performed with a positron camera (Positron Corporation, Houston, Tex.). The tomograph has a field-of-view of 42 cm on transverse and 12 cm on coronal planes. The axial resolution on the reconstructed plane is 1.2 cm.
Three male New Zealand white rabbits each weighing 3 kg were inoculated at a single site in the right buttock area with a 0.5 ml suspension of minced VX2 tumor fragments (10^6 cells/rabbit). The tumors are maintained through serial animal passage and are available from the Department of Veterinary Medicine (The University of Texas M.D. Anderson Cancer Center, Houston, Tex.). […]

[2] = system: mammary tumor cells (13762 tumor cell line); settings: for Tumor/blood count density ratio / Tumor/liver count density ratio / Tumor/muscle count density ratio / Blood, percent of injected dose/gram weight / Bone, percent of injected dose/gram weight / Kidney, percent of injected dose/gram weight / Liver, percent of injected dose/gram weight / Lung, percent of injected dose/gram weight / Muscle, percent of injected dose/gram weight / Spleen, percent of injected dose/gram weight / Tumor, percent of injected dose/gram weight: 10 μCi/rat iv, N = 3
Procedure: as §1
Female Fischer 344 rats (250-275 g) (Harlan, Inc., Indianapolis, Ind.) were inoculated with mammary tumor cells in the lumbar area using a 13762 tumor cell line (s.c. 10^5 cells/rat). […] Three groups of rats (N=3/group) were anesthetized with ketamine (10-15 mg/rat). The ^18 F-FETNIM reconstituted in 5% ethanol/saline was given to rats (10 μCi/rat, iv) and tissue distribution was conducted at 1h, 2h and 4h intervals. The tissues were excised, weighed and counted for radioactivity. The percent of injected dose per gram of tissue weight was determined.

mammary tumor = assay: Autoradiographic studies in tumor-bearing rats; settings: 1 hour postinjection
Procedure: as §1
Female Fischer 344 mammary tumor-bearing rats (n=3) after receiving [^18 F]FETNIM (2 mCi, iv) were sacrificed at 1 h. […] The rats were sacrificed at 1 hour postinjection. The rat body was fixed in a carboxymethyl cellulose (4%) block. The frozen body in a block was mounted to a cryostat (LKB 2250 cryo-microtome, Ijamsville, Md.) and 40 μm coronal sections were made. The section was freeze dried, then mounted on a x-ray film (X-Omat AR, Kodak, Rochester, N.Y.) for 24 hours.

cancer of the pharynx = settings: cited from earlier work; for Radiosensitizer potency: human, in vivo; for Clinical benefit on addition: patients with high hemoglobin levels and cancer of the pharynx
[3] = in mice; cited from earlier work
patients = settings: cited from earlier work; for Dose-limiting toxicity: clinical trials
[4] = 1 hour, listed as [^18 F] Fluoroerythronitroimidazole
[5] = 2 hour, listed as [^18 F] Fluoroerythronitroimidazole
[6] = 4 hour, listed as [^18 F] Fluoroerythronitroimidazole

## O=[N+]([O-])c1nccn1C[C@H](O)[C@H](O)CF [[^18 F]FETNIM, [^18 F]fluoroerythro-2-nitroimidazole]
Hypoxic cells
  Selectivity to hypoxic cells: selective to hypoxic cells
[1]
  Hydrophilicity: more hydrophilic than [^18 F]FMISO
[1]; listed as [^18 F]fluoroerythronitroimidazole
  Hydrophilicity: more hydrophilic than misonidazole
VX2 tumor
  SUV value of the tumor: greater than 10
[2]; 1, 2 and 4 h
  Tumor/muscle, tumor/blood and tumor/liver count density ratios, change with time: showed increases with time
[2]; 1 hour
  Tumor/blood count density ratio: 2.29±0.599
  Tumor/liver count density ratio: 1.7600 ± 0.4415
  Tumor/muscle count density ratio: 0.66±0.267
  Blood, percent of injected dose/gram weight: 0.3493 ± 0.02173% of Injected Dose/Gram Weight
  Bone, percent of injected dose/gram weight: 0.2570 ± 0.14% of Injected Dose/Gram Weight
  Kidney, percent of injected dose/gram weight: 0.8860 ± 0.00424% of Injected Dose/Gram Weight
  Liver, percent of injected dose/gram weight: 0.4530 ± 0.01493% of Injected Dose/Gram Weight
  Lung, percent of injected dose/gram weight: 0.3577 ± 0.00723% of Injected Dose/Gram Weight
  Muscle, percent of injected dose/gram weight: 1.2600 ± 0.08627% of Injected Dose/Gram Weight
  Spleen, percent of injected dose/gram weight: 0.3183 ± 0.02011% of Injected Dose/Gram Weight
  Tumor, percent of injected dose/gram weight: 0.7957 ± 0.2036% of Injected Dose/Gram Weight
[2]; [4]
  Tumor/blood count density ratio: 2.2900 ± 0.5994
  Tumor/muscle count density ratio: 0.6602 ± 0.2666
[2]; 2 hour
  Tumor/blood count density ratio: 2.41±0.567
  Tumor/liver count density ratio: 1.7700 ± 0.2561
  Tumor/muscle count density ratio: 2.11±0.347
  Blood, percent of injected dose/gram weight: 0.1950 ± 0.02828% of Injected Dose/Gram Weight
  Bone, percent of injected dose/gram weight: 0.0810 ± 0.00424% of Injected Dose/Gram Weight
  Kidney, percent of injected dose/gram weight: 0.5145 ± 0.02334% of Injected Dose/Gram Weight
  Liver, percent of injected dose/gram weight: 0.3123 ± 0.08225% of Injected Dose/Gram Weight
  Lung, percent of injected dose/gram weight: 0.2107 ± 0.05713% of Injected Dose/Gram Weight
  Muscle, percent of injected dose/gram weight: 0.2670 ± 0.09036% of Injected Dose/Gram Weight
  Spleen, percent of injected dose/gram weight: 0.2013 ± 0.05918% of Injected Dose/Gram Weight
  Tumor, percent of injected dose/gram weight: 0.5516 ± 0.1582% of Injected Dose/Gram Weight
[2]; [5]
  Tumor/blood count density ratio: 2.4100 ± 0.5672
  Tumor/muscle count density ratio: 2.1100 ± 0.3468
[2]; 4 hour
  Tumor/blood count density ratio: 8.0±2.42 and 8.02±2.420
  Tumor/liver count density ratio: 4.3300 ± 1.31
  Tumor/muscle count density ratio: 5.92±2.240
  Blood, percent of injected dose/gram weight: 0.0993 ± 0.01266% of Injected Dose/Gram Weight
  Bone, percent of injected dose/gram weight: 0.0753 ± 0.0157% of Injected Dose/Gram Weight
  Kidney, percent of injected dose/gram weight: 0.4663 ± 0.06866% of Injected Dose/Gram Weight
  Liver, percent of injected dose/gram weight: 0.1843 ± 0.02458% of Injected Dose/Gram Weight
  Lung, percent of injected dose/gram weight: 0.1027 ± 0.02122% of Injected Dose/Gram Weight
  Muscle, percent of injected dose/gram weight: 0.1377 ± 0.01893% of Injected Dose/Gram Weight
  Spleen, percent of injected dose/gram weight: 0.0953 ± 0.01401% of Injected Dose/Gram Weight
  Tumor, percent of injected dose/gram weight: 0.8113 ± 0.3377% of Injected Dose/Gram Weight
[2]; [6]
  Tumor/blood count density ratio: 8.0200 ± 2.42
  Tumor/muscle count density ratio: 5.9200 ± 2.24
Mammary tumor; 2 mCi iv
  Tumor visualization by autoradiography: the tumor could be visualized 1 hour postinjection
  Uptake in the center region of the tumor: lack of uptake
Mammary tumor
  Uptake in intestines and colon: high uptake
  Uptake in medullary of the kidney area: higher uptake
Mammary tumor; autoradiogram
  Differentiation of hypoxic versus necrotic regions in the tumor: could differentiate hypoxic versus necrotic regions in the tumor

## COCC(O)Cn1ccnc1[N+](=O)[O-] (centres unmarked) [misonidazole]
Cancer of the pharynx
  Radiosensitizer potency: potent radiosensitizers
  Clinical benefit on addition: great benefit
[3]
  Dose which affects the neurotransmitter system: 0.76 mg/g
patients
  Dose-limiting toxicity: peripheral neuropathy that progressed to central nervous system toxicity if drug administration was not stopped
patients; human, in vivo
  Most common side effect: peripheral sensory neuropathy of the hands and feet
patients; large single doses
  Toxicity after large single doses: convulsions
patients; small multiple doses
  Toxicity following small multiple doses: encephalopathies

## O=C(Cn1ccnc1[N+](=O)[O-])NCCO [etanidazole]
Cancer of the pharynx
  Radiosensitizer potency: potent radiosensitizers
  Clinical benefit on addition: great benefit
patients
  Dose-limiting toxicity: peripheral neuropathy that progressed to central nervous system toxicity if drug administration was not stopped
